Assay results from patent US20240336567A1, “PESTICIDAL AND HERBICIDAL COMPOUNDS AND METHODS OF USE THEREOF” (AG Plenus Ltd, priority 2021, published 2024).

What was measured:
[1] = in vitro thermal shift (binding of compound to the target); conditions: thermal shift caused by binding of the compound to the (unnamed) target
Arabidopsis thaliana [2] = experiment: HTPS (high throughput on soil) - Dicot - Post-emergence; assay type: in vivo; conditions: N/A: not active; for Emax: read-out: HTPS - Dicot - Post Max effect; for HTPS - Dicot - Post ED50: from normalized green area
Protocol: (§1) Arabidopsis thaliana seeds were sown in 96 well plates filled with irrigated Sweet sand (10%>clay) that is washed from salts and minerals using tap water. 5-10 seeds were sown in the center of each well. 7-8 days post sowing, at 2 true leaves stage, thinning out was performed to ensure that compound application is done on a single plant per well. The plates were placed in a controlled greenhouse in a random order inside a bath which allows flooding irrigation with tap water supplemented with a fertilizer. Applied compounds were dissolved into a final solution of 50% acetone, 49.9% DDW, 0.1% tween-20. A 96 well plate was used as a stock plate for preparing application solutions for 8 repeats. Each row contained different concentrations per chemical. Maximal concentration for application was 1.5 Kg/Ha and dilution factor is 2.5. Chemical application was performed one day after thinning out in a chemical hood. 5 μL applied on first two true leaves in each well using 12 channel pipettes. Data collection: RGB (red, green, blue) data for green area per well was documented using camera. Data is collected at a few time points during the experiment: one day after thinning and before chemical application, two-, six- or nine-days post application. During the last two documentations, visual phenotyping was performed. Data analysis: Given RGB results and visual phenotype scores, a student t-test conducted to compare between treatment and control performance for continuous data (RGB) and Fisher exact test to analyze the non-continuous data (phenotypic scores). Dose-Response curves are generated for each treatment to infer ED50 and max. inhibition parameters, using treatment's log concentration range as the […] variable and normalized green area. Plate imaging performed at 11 and 18 DAA. RGB data for green area per well was documented and used to extract % inhibition. Dose-Response curves were built for each treatment to infer ED50, ED75 and ED90 parameters, using treatment's log concentration range as the independent variable and normalized green area as the dependent variable. Treatments were compared to controls performance given RGB results and using student's t-test (p-val≤0.05).

Arabidopsis thaliana [3] = experiment: HTPS - Dicot - Pre-emergence; assay type: in vivo; conditions: N/A: not active; for Emax: read-out: HTPS - Dicot - Pre Max effect
Protocol: as §1, with “area. These experiments are conducted similarly except that either Arabidopsis thaliana or Eragrostis teff seeds were sowed (5-10 or 5-7, respectively), plant thinning out was not performed, compound dissolved into a final solution of 50% acetone, 49.9% DDW, compound application was done at 30 μL volume per well directly on sowed soil before plant emergence and data was collected 10 or 7 days after chemical application on dicot or monocot plants, respectively.” for “area.”

Eragrostis teff = experiment: HTPS - Monocot - Pre-emergence; assay type: in vivo; conditions: N/A: not active; for Emax: read-out: HTPS - Monocot - Pre Max effect
Protocol: as §1, with “area. These experiments are conducted similarly except that either Arabidopsis thaliana or Eragrostis teff seeds were sowed (5-10 or 5-7, respectively), plant thinning out was not performed, compound dissolved into a final solution of 50% acetone, 49.9% DDW, compound application was done at 30 μL volume per well directly on sowed soil before plant emergence and data was collected 10 or 7 days after chemical application on dicot or monocot plants, respectively.” for “area.”

Row | Structure (SMILES) | in vitro Thermal Shift [1] [°C] | Emax (Arabidopsis thaliana [2]) [%] | HTPS - Dicot - Post ED50 (Arabidopsis thaliana [2]) [g/ha] | HTPS - Dicot - Pre ED50 (Arabidopsis thaliana [3]) [g/ha] | Emax (Arabidopsis thaliana [3]) [%] | Emax (Eragrostis teff) [%] | HTPS - Monocot - Pre ED50 (Eragrostis teff) [g/ha]
1 | CC(N)COc1cc(Cl)c(F)c(C(=O)O)c1 (stereo not shown) [Compound 186] | 16 | 100 | 200 | – | – | – | –
2 | CCOC(=O)c1cccc(OCC(C)N)c1 (stereo not shown) [Compound 150] | 6 | – | – | 150 | 100 | – | –
3 | NCCSc1cccc(C(=O)O)c1 [Compound 151] | 5 | – | – | – | – | – | –
4 | NCCOc1cccc(C(=O)O)c1 [Compound 127] | 9 | 100 | 134 | 180 | 100 | 94 | –
5 | NC1CCCC1Oc1cccc(C(=O)O)c1 (stereo not shown) [Compound 122] | 16 | 100 | 19 | – | – | 89 | –
6 | CC(N)CNc1ccc(Cl)c(C(=O)O)c1 (stereo not shown) [Compound 139] | 9 | – | – | 256 | 100 | – | –
7 | NCCNc1ccc(Cl)c(C(=O)O)c1 [Compound 133] | 6 | 40 | – | – | 5 | 0 | –
8 | COC(=O)CCOC(=O)c1cccc(OCC(C)N)n1 (stereo not shown) [Compound 182] | – | 100 | 72 | – | – | – | –
9 | CC(C)(N)COc1cccc(C(=O)O)c1 [Compound 103] | 8 | 100 | 157 | – | – | – | –
10 | CC(CN)Nc1cccc(C(=O)O)c1 (stereo not shown) [Compound 119] | 7 | 33 | – | – | 22 | 3 | –
11 | Cc1ccc(OCCN)cc1C(=O)O [Compound 152] | 4 | – | – | – | – | – | –
12 | C[C@H](N)COc1cccc(C(=O)O)c1 [Compound 155] | 13 | 100 | 56 | 60 | 100 | 100 | 170
13 | CCC(N)COc1cccc(C(=O)O)n1 (stereo not shown) [Compound 168] | 15 | 100 | 22 | – | – | – | –
14 | CC(N)CSc1cccc(C(=O)O)c1 (stereo not shown) [Compound 140] | 5 | 15 | – | – | 0 | 33 | –
15 | NC1(COc2cccc(C(=O)O)c2)CC1 [Compound 121] | 11 | 99 | 256 | – | – | – | –
16 | NC1CCCC1Oc1cccc(C(=O)O)n1 (stereo not shown) [Compound 173] | – | 100 | 463 | – | – | – | –
17 | CCOC(=O)CNC(=O)c1cccc(OCC(C)N)n1 (stereo not shown) [Compound 176] | 2 | 100 | 85 | – | – | – | –
18 | CC(N)COc1cccc(C(=O)OCCC(=O)O)n1 (stereo not shown) [Compound 183] | – | 100 | 17 | – | – | – | –
19 | CC(CN)Oc1ccc(F)c(C(=O)O)c1 (stereo not shown) [Compound 101] | 13 | 24 | – | – | 20 | 12 | –
20 | CCOC(=O)CNC(=O)c1cccc(OCC(C)N)c1 (stereo not shown) [Compound 178] | 1 | 100 | 39 | – | – | – | –
21 | CC(N)COc1ccc(Cl)c(C(=O)O)c1 (stereo not shown) [Compound 107] | 14 | 100 | 400 | 127 | 100 | 45 | 660

Continued, in another order:

Row | in vitro Thermal Shift [1] [°C] | Structure (SMILES) | Emax (Arabidopsis thaliana [2]) [%] | HTPS - Dicot - Post ED50 (Arabidopsis thaliana [2]) [g/ha] | HTPS - Dicot - Pre ED50 (Arabidopsis thaliana [3]) [g/ha] | Emax (Arabidopsis thaliana [3]) [%] | Emax (Eragrostis teff) [%] | HTPS - Monocot - Pre ED50 (Eragrostis teff) [g/ha]
22 | 3 | CCOC(=O)c1cccc(OCC(C)N)n1 (stereo not shown) [Compound 219] | 100 | 48 | – | – | – | –
23 | 9 | CCOC(=O)COC(=O)c1cccc(OCC(C)N)n1 (stereo not shown) [Compound 179] | 100 | 22 | – | – | – | –
24 | 12 | COC(=O)COC(=O)c1cccc(OCC(C)N)n1 (stereo not shown) [Compound 180] | 100 | 13 | – | – | – | –
25 | 14 | CC(N)COc1cccc(C(=O)OCC(=O)O)n1 (stereo not shown) [Compound 181] | 100 | 23 | – | – | – | –
26 | 5 | CCCCOC(=O)c1cccc(OCC(C)N)n1 (stereo not shown) [Compound 184] | 100 | 36 | – | – | – | –
27 | 10 | C#CCOC(=O)c1cccc(OCC(C)N)n1 (stereo not shown) [Compound 185] | 100 | 30 | – | – | – | –
28 | 15 | C[C@@H](N)COc1cccc(C(=O)O)n1 [Compound 174] | 100 | 44 | 3.8 | 100 | – | –
29 | 8 | COC(=O)c1cccc(OCC(C)N)n1 (stereo not shown) [Compound 218] | 100 | 14 | – | – | – | –
30 | 15 | C[C@H](N)COc1cccc(C(=O)O)n1 [Compound 175] | 100 | 7 | 3.8 | 100 | – | –
31 | 6 | CCOC(=O)CCOC(=O)c1cccc(OCC(C)N)n1 (stereo not shown) [Compound 177] | 100 | 27 | – | – | – | –
